# According to patent US10022354B2, “Pyrrolidine amide compounds as histone demethylase inhibitors” (GENENTECH, INC., priority 2014, dated 2018):
# How the values were obtained:
# [1] = target: full length KDM5A enzyme (Homo sapiens (Human), UniProt P29375); assay: KDM5 Enzyme Assay (KDM5A HTRF); assay type: biochemical; settings: 2 nM full length KDM5A, 100 nM H3K4Me3 peptide, 1 uM 2-OG, 30 min room temperature
# How it was run: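 KDM5A demethylase activity was assessed by HTRF using in-house expressed and purified full length human KDM5A at 2 nM with 100 nM biotinylated H3K4Me3 peptide and 1 uM 2-OG. The 10 uL reaction also held 100 uM Fe^2+, 500 uM ascorbate, 50 mM HEPES pH 7.0, 0.01% Triton-X 100, 2 mM DTT and 0.25% DMSO. Detection used Eu-labeled H3K4me1-2 antibody and streptavidin-XL665, read on an Envision reader.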
# [2] = system: H3K4Me3 mark level in PC9 cells; assay: KDM5 Cell Assay (H3K4Me3 mark level, PC9 HTRF); assay type: cell-based; settings: Homo sapiens, PC-9, 120 hours at 37° C.
# Experimental: PC9 cells were seeded in a 384 well plate (2000 cells/well) with a test compound and incubated for 120 hours at 37° C. H3K4Me3 mark level was assessed using HTRF reagents from CisBio. Briefly, media was removed and cells were lysed in 20 μL of Epigeneous Cell Histone lysis buffer C for 45 min at 26° C., shaking. 10 μL of 4 μg/mL acceptor antibody (H3K4me3-d2) and 10 μL of 1.2 μg/mL donor antibody (Total H3-K) in Cell Histone detection buffer were added and the mixture was incubated at 26° C. for 1 hour. Assay plate was read subsequently on Envision (Perkin Elmer). Each compound was run in duplicate. Data were normalized to DMSO treated wells as the low response and EC50's were calculate using a four-parameter fit.
# Chain of full length KDM5A enzyme (P29375 whole entry): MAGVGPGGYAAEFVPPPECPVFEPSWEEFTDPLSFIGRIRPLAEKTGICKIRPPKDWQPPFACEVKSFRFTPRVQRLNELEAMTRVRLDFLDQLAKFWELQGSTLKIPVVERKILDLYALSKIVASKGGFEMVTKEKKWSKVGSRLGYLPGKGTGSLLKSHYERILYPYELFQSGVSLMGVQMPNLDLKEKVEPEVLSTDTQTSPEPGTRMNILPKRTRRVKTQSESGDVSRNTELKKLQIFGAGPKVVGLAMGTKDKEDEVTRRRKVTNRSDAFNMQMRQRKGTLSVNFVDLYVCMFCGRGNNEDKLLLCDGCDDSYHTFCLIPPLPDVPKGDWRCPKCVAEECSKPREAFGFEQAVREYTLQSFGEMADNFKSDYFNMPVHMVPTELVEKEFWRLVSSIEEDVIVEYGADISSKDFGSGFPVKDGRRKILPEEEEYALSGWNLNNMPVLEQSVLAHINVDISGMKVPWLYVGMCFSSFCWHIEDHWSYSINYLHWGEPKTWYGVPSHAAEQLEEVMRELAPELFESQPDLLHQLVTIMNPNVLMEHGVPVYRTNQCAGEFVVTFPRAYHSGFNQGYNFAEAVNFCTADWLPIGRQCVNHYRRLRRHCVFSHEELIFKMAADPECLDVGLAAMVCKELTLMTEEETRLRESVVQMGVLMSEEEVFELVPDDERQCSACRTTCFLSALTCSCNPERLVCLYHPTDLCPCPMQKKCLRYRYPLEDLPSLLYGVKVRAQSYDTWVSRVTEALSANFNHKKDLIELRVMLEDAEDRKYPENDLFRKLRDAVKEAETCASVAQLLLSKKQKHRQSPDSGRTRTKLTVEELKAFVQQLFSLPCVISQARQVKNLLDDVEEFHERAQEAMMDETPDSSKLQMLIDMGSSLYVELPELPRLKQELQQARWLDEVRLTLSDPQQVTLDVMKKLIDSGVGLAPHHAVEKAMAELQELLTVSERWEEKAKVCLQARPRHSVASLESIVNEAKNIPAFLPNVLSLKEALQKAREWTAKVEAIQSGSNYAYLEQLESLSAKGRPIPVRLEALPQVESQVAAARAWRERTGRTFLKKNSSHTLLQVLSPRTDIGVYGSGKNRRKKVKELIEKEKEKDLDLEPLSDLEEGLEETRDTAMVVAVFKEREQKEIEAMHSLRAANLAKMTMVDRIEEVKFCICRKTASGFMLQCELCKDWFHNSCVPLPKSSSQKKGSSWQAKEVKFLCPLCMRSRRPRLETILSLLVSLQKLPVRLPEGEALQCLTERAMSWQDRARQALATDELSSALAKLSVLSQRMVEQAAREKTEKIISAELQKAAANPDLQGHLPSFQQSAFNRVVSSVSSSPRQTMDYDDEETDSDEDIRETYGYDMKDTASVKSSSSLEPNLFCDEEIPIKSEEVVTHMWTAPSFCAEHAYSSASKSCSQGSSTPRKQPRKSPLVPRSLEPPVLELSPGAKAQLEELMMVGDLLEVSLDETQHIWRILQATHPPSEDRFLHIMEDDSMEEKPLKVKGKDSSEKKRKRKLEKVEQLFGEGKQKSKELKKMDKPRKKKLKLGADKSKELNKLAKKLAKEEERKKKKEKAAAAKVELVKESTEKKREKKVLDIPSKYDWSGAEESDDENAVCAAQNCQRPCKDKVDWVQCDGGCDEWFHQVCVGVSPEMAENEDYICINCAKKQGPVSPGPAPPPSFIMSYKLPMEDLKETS
IC50 [1] [pM],EC50 [2] [pM],SMILES
78,1100,CC(C)c1cc(C(=O)N2CC[C@@H](NC(=O)C3CC34CC4)C2)[nH]n1 (stereo partly shown) [Example 228]
140,5000,CC(C)c1cc(C(=O)N2CC[C@@H](NC(=O)[C@@H]3C[C@H]3F)C2)[nH]n1 [Example 232]
160,19000,CC(C)c1cc(C(=O)N2CCC(n3cc(Br)c(C4CC4)n3)C2)[nH]n1 (stereo not shown) [Example 234]
150,7000,CC(C)c1cc(C(=O)N2CCC(n3cc(Br)c(C(C)C)n3)C2)[nH]n1 (stereo not shown) [Example 238]
300,23000,CC(C)c1cc(C(=O)N2CC[C@@H](n3ncc4c(F)cccc43)C2)[nH]n1 [Example 246]
